Results reported in patent US8318781B2, “G-protein-conjugated receptor agonist” (Japan Science and Technology Agency, priority 2007, dated 2012).
“Also recorded” adds a separate entry of the source. Like-named read-outs stand apart in the source and are kept apart here.

Tests used:
Type in all cases: cell-based
[1] = target: T1, human GPR120 (hGPR120) (Homo sapiens, UniProt Q5NUL3); assay: ERK assay, screening for GPR120 ligands in cell line TXGPR120;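 on ERK/GPR120 10 μM: signals normalized between DMSO and PMA controls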; conditions: TXGPR120 cells; for ERK/GPR120 10 μM: ligand 10 μM; for ERK/GPR120 10 μM / ERK/GPR120 100 μM: class relative to LA; for ERK/GPR120 100 μM: ligand 100 μM; for ERK activation for GPR120 (in words): FIGS. 5-8
T1 construct: expressed in transfected cells; doxycycline-inducible expression vector
T1 sequence (Q5NUL3 1-361): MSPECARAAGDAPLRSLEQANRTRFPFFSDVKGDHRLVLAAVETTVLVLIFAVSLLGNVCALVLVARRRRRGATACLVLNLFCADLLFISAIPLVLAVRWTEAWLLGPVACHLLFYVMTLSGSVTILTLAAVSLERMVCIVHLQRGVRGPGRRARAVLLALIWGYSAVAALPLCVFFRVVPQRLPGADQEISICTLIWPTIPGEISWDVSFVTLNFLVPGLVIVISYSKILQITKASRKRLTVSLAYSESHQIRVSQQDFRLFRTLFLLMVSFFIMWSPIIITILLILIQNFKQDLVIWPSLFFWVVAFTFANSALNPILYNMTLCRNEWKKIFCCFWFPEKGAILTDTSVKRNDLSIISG
Procedure: (§1) This Test 1 was carried out by using the following materials and methods.
(§2) (1) In this test, the cell lines TXGPR40 and TXGPR120 were plated in 35-mm dishes in 5×10^5 cells/per dish.
(§3) Each ligand was dissolved in DMSO, diluted tenfold with the medium to make the total amount of 100 μl. DMSO was used as the negative control, and PMA (phorbol-12-myristate-13-acetate) was used as the positive control.
(§4) (3) The medium was removed from the dish of the cell to reduce the total amount of liquid to 0.9 ml.
(§5) (4) The ligand solution was added dropwise to the cell solution, and dispersed by gently shaking the dish, and allowed to react at room temperature.
(§6) (5) After 5 minutes of reaction, the medium was discarded, and the remaining medium on the dish was removed on ice using an aspirator.
(§7) (6) 150 μl of Lysis buffer (50 mM HEPES (pH 7.0), 150 mM NaCl, 10% glycerol, 1% NonidetP-40, 2 mM MgCl2, 1 mM EDTA, 100 mM NaF, 10 mM sodium phosphate, 1 mM Na3VO4, 20 mM β-glycerophosphate, and Proteinase inhibitor) were added, then the cells were collected using a cell scraper.
(§8) (1) The crude enzyme solution mixed with SDS Sample Buffer was subjected to ultrasonication with a sonifier, then incubated at 90° C. for five minutes.
(§9) (2) The mixture was vortexed and centrifuged at 15,000 rpm for five minutes at 4° C.
(§10) (3) The supernatant of the centrifuged sample was applied to two 7.5% acrylamide gel slabs placed in an electrophoresis tank filled with 1×SDS-PAGE Running Buffer (25 mM Tris, 0.2 M Glycin, and 1% SDS). Electrophoresis was carried out under a constant current of 40 mA for about 80 to 90 minutes.
(§11) (1) A PVDF membrane cut in the same size as the gel slab was immersed in methanol for about 15 seconds and then shaken in Transfer Buffer C solution (25 mM Tris, 0.02% SDS, 2% methanol and 40 mM 6-aminohexanoic acid) at room temperature to swell for 15 minutes. Filter paper for blotting was cut into a 10-cm square.
(§12) (2) On the blotting apparatus were placed sequentially two pieces of filter paper immersed in A solution (0.3 M Tris, 0.02% SDS and 2% methanol), two pieces of filter paper immersed in B solution (25 mM Tris, 0.02% SDS and 2% methanol), and the membrane thereon. The gel slab after electrophoresis, and finally two pieces of filter paper immersed in C solution was placed thereon, and the apparatus was closed.
(§13) (3) The protein was transferred to the membrane at 15 V for 30 minutes.
(§14) (1) The following procedure was all carried out at room temperature. After the protein transfer, the membrane was placed into a vial containing 1×TTBS (0.2 M Tris, 1.5 M NaCl, 0.2% Tween 20) and washed for 15 minutes.
(§15) (2) TTBS was discarded, and about 10 ml of Block Ace was added and blocked on a shaker for one hour.
(§16) (1) The primary antibodies (p44/42 MAP Kinase Antibody and Phospho-p44/42 MAP Kinase Antibody) were each diluted 1000-fold with TTBS.
(§17) (2) After blocking, the Block Ace solution was removed, the solution of the primary antibody was added and allowed to react on the shaker for two hours.
(§18) (1) The secondary antibody (Anti-rabbit Ig, Horseradish Peroxidase linked F(ab′)2 fragments) was diluted 5000-fold with TTBS.
(§19) (2) The primary antibody solution was removed and the membrane was washed three times on the shaker in TTBS for five to ten minutes each.
(§20) (3) TTBS was removed and the solution of secondary antibody was added and left for 1 hour on the shaker.
(§21) (1) 2 ml each of Detection Reagent 1 and Detection Reagent 2 from ECL kit were mixed together on ice.
(§22) (2) The solution of secondary antibody was removed from the membrane reacted with the secondary antibody and then washed three times on the shaker in TTBS for five minutes each.
(§23) (3) The liquid was thoroughly removed from the membrane, which was then placed in a plastic bag, and 2 ml of the Detection Reagent mixture was added per each membrane.
(§24) (4) The membrane was kept in contact with a film in the cassette for one to five minutes, and the film was developed using an automatic developing machine.

[2] = target: T1, human GPR120 (hGPR120); assay: Determination of intracellular Ca2+ concentration (FLIPR), cell line GPR120/Flp-in; conditions: for [Ca^2+]/GPR120/Flp-In 10 μM (ratio vs. LA): relative fluorescence intensity vs LA at 10 μM
Procedure: (§25) (1) In this test, The cell lines TXGPR40, TXGPR120 and GPR120/Flp-in were plated onto a collagen-coated black 96-well plate in 2×10^5 cells/well. The 96-well plates containing the cells were centrifuged and treated with Doxycycline (final concentration 10 μg/mL), incubated in a CO2 incubator for 21 hours, then used for assay.
(§26) (2) The ligand used in this test includes NCP04, NCP14, NCG20, NCG21, NCG22, NCG23, NCP02, NCP03, NCP05, NCP06, NCG14, NCG17, NCG19, NCG28, NCG29, NCG30, NCG31, NCG34, NCG35, NCG37, NCG38, NCG44, NCG45, NCG46, and NCG54. Each ligand was dissolved in DMSO and adjusted to the concentration of 10 mM, then diluted with Hanks' Balanced Salt Solution (pH 7.4) containing 20 mM HEPES (referred to as FLIPR buffer hereinafter) to the final concentration of 1 to 100 μM. 1% DMSO was used as the negative control, and LA was used as the positive control.
(§27) The ligands and controls were placed in different 96-well plates from the plates for the cells.
(§28) (3) The 96-well plate containing the cells was removed from the CO2 incubator. A fluorescent dye prepared in a twofold higher concentration (Ca Assay Kit Component A diluted with FLIPR Buffer) was added in 50 μL/well, then allowed to stand in the dark at room temperature for one hour.
(§29) (4) After one hour, the 96-well plate containing the cells and the 96-well plate in which ligands and controls were prepared were set on FLIPR (Fluorometric Imaging Plate Reader) for determination.
(§30) (5) Fluorometry using FLIPR was carried out at a laser output of 1.0 W for five minutes. […] after the start of the determination, the ligand (25 μL) was added dropwise to the cell plate at a rate of 50 μL/sec. The intensity of fluorescence was automatically digitized by the application program installed in the FLIPR from the image taken by the CCD camera (with exposure time of 0.40 sec). The interval of data sampling was one second for the initial one minute after the start of operation, and six seconds for the subsequent four minutes.
(§31) (6) The maximum fluorescence intensity was obtained from the data showing the change in the fluorescence intensity over time observed in each well. The maximum fluorescence intensity was plotted against ligand concentration, and pEC50 was calculated. The ratio of the fluorescence intensity for each ligand to LA at 10 μM was calculated as the relative intensity of each ligand.

[3] = target: T2, human GPR40 (hGPR40) (Homo sapiens, UniProt O14842); assay: ERK assay, screening for GPR40 ligands in cell line TXGPR40; conditions: TXGPR40 cells; for ERK/GPR40 10 μM: ligand 10 μM; for ERK/GPR40 10 μM / ERK/GPR40 100 μM: class relative to LA; for ERK/GPR40 100 μM: ligand 100 μM; for ERK activation for GPR40 (in words): FIGS. 1-4
T2 construct: expressed in transfected cells; doxycycline-inducible expression vector
T2 sequence (O14842 whole entry): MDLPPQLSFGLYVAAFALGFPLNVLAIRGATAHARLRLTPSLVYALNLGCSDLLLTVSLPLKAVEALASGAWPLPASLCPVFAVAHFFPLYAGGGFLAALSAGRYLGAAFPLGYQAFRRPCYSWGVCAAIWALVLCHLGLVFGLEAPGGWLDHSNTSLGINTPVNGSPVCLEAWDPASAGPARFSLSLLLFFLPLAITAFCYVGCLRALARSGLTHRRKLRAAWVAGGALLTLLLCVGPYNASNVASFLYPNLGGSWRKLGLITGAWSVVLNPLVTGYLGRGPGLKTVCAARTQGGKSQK
Procedure: as §1, §2, §3, §4, §5, §6, §7, §8, §9, §10, §11, §12, §13, §14, §15, §16, §17, §18, §19, §20, §21, §22, §23, §24

[4] = target: T2, human GPR40 (hGPR40); assay: Determination of intracellular Ca2+ concentration (FLIPR), cell line TXGPR40; conditions: for agonistic activity for GPR40 (in words): cells in which GPR40 has been transgenically expressed; for [Ca^2+]/GPR40 10 μM (ratio vs. LA): relative fluorescence intensity vs LA at 10 μM
Procedure: as §25, §26, §27, §28, §29, §30, §31

[5] = target: T1, human GPR120 (hGPR120); assay: Determination of intracellular Ca2+ concentration (FLIPR), cell line TXGPR120; conditions: for agonistic activity for hGPR120 (in words): cells in which GPR120 has been transgenically expressed; for [Ca^2+]/GPR120 10 μM (ratio vs. LA): relative fluorescence intensity vs LA at 10 μM
Procedure: as §25, §26, §27, §28, §29, §30, §31

[6] = GPR120/Flp-in cells, maximum fluorescence intensity vs ligand concentration, read-out: [Ca^2+]/GPR120/Flp-In pEC50 (converted)
[7] = TXGPR40 cells, maximum fluorescence intensity vs ligand concentration, read-out: [Ca^2+]/GPR40 pEC50 (converted)

Structure (SMILES)	ERK/GPR120 10 μM [1]	ERK/GPR120 100 μM [1]	EC50 [2, 6] [µM]	[Ca^2+]/GPR120/Flp-In 10 μM (ratio vs. LA) ([2]; GPR120/Flp-in cells)	ERK/GPR40 10 μM [3]	ERK/GPR40 100 μM [3]	EC50 [4, 7] [µM]	agonistic activity for GPR40 (in words) [4]	[Ca^2+]/GPR40 10 μM (ratio vs. LA) ([4]; TXGPR40 cells)	agonistic activity for hGPR120 (in words) [5]	[Ca^2+]/GPR120 10 μM (ratio vs. LA) ([5]; TXGPR120 cells)	ERK activation for GPR120 (in words) [1]	ERK activation for GPR40 (in words) [3]	EC50 [2] [µM]	EC50 [4] [µM]	EC50 [5] [µM]	EC50 ([5]; TXGPR120 cells, maximum fluorescence intensity vs ligand concentration, read-out: [Ca^2+]/GPR120 pEC50 (converted)) [µM]
CCCCCN(CCOc1ccc(CCC(=O)O)cc1)c1ccccn1 [NCP05]	+ (+ denotes 0 to 100% of LA)	+++ (+++ denotes a higher value than LA)	11.5	0.45	+++ (+++ denotes a higher value than LA)	+++ (+++ denotes a higher value than LA)	5.62	showed a specific reactivity	1.22	exhibit a similar effect	0.00						
O=C(O)CCc1ccc(OCCCN(c2ccccc2)c2ccccn2)cc1 [NCG28]	++ (++ denotes 50 to 100% of LA)	+++ (+++ denotes a higher value than LA)	6.76	0.54	+++ (+++ denotes a higher value than LA)	+++ (+++ denotes a higher value than LA)	1.12	showed a specific reactivity	1.37	exhibit a similar effect	0.02	activates ERK	activates ERK at lower concentrations; also recorded: strongly activated ERK				
O=C(O)CCCc1ccc(OCCN(c2ccccc2)c2cc(Cl)ccn2)cc1 [NCG35]	+++ (+++ denotes a higher value than LA)	+++ (+++ denotes a higher value than LA)		1.00	+++ (+++ denotes a higher value than LA)	+++ (+++ denotes a higher value than LA)		showed a specific reactivity	0.68	exhibit a similar effect	0.61	strongly activate ERK	strongly activated ERK	4.57	7.76	16.2	
O=C(O)CCCc1ccc(OCCN(c2ccccc2)c2ncccn2)cc1 [NCG44]	+ (+ denotes 0 to 100% of LA)	++ (++ denotes 50 to 100% of LA)	3.55	0.85		+ (+ denotes 0 to 100% of LA)			0.01	exhibit a similar effect	0.49						22.9
Cc1cccc(N(CCOc2ccc(CCCC(=O)O)cc2)c2ccccc2)n1 [NCG38]	+++ (+++ denotes a higher value than LA)	+++ (+++ denotes a higher value than LA)		0.81	++ (++ denotes 50 to 100% of LA)	+++ (+++ denotes a higher value than LA)		showed a specific reactivity	0.34	exhibit a similar effect	0.56	strongly activate ERK	strongly activated ERK	6.76	13.5	22.4	
CCCCN(CCOc1ccc(CCC(=O)O)cc1)c1ccccn1 [NCP04]	+ (+ denotes 0 to 100% of LA)	+++ (+++ denotes a higher value than LA)	18.2	0.33	+++ (+++ denotes a higher value than LA)	+++ (+++ denotes a higher value than LA)	2.57	showed a specific reactivity	2.15	exhibit a similar effect	0.00						
